Test results from publication PMC11470957, “Principles of paralog-specific targeted protein degradation engaging the C-degron E3 KLHDC2” (Nature Communications, 2024).
Where two headings read alike, the source gives them in different places.

Target: BRD2 (Homo sapiens, UniProt P25440)
Test: Western blot of BRD2 levels after cellular dosing
[1] = U2OS, read-out: BRD2 level, Western blot quantification (DMSO = 100), Fig S6d, U2OS KO/rescue Dose Response
[2] = read-out: BRD2 level, Western blot quantification (DMSO = 100), Fig S6e, PC3 KO/rescue Dose Response

Sequence of BRD2 (P25440 whole entry): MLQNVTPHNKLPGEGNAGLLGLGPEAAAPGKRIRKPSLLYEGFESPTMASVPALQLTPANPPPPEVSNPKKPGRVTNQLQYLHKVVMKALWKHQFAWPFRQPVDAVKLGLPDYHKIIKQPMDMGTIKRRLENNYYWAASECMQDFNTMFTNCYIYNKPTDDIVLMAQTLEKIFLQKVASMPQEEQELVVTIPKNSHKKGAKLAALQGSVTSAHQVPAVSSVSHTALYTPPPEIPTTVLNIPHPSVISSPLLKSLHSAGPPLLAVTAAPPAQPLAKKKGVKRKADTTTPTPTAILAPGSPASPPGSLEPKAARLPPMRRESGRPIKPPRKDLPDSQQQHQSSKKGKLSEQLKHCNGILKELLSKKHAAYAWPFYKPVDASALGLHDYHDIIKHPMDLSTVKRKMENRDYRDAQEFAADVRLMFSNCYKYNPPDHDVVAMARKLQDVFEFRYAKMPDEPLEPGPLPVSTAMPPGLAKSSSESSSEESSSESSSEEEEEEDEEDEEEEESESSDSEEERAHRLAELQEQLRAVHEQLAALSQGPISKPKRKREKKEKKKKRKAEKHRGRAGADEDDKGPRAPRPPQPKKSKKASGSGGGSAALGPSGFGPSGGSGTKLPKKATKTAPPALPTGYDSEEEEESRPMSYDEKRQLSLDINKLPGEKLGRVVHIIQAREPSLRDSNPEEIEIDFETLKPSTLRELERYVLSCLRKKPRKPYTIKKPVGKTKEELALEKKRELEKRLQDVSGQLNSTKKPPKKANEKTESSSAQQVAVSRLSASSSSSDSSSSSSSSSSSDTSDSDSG

## COC(=O)CNC(=O)Cc1csc(-c2ccc3cccc(OCCN4CCN(C(=O)C[C@@H]5N=C(c6ccc(Cl)cc6)c6c(sc(C)c6C)-n6c(C)nnc65)CC4)c3c2)n1 [SJ46420]
SK-BR-3, 4 h, read-out: BRD2 level relative to DMSO (100%), SKBR3, 5µM, 4hr, Fig S6g
  remaining activity at 5 µM: 83 ± 6.1%
SK-BR-3, 4 h, read-out: BRD2 level relative to DMSO (100%), SKBR3, 5µM, 4hr, Fig S6j
  remaining activity at 5 µM: 85 ± 7.3%
SK-BR-3, 4 h, read-out: BRD2 level, Western blot quantification (DMSO = 100), Fig S6g, SKBR3 Time course, 1 uM, 4hr
  remaining activity at 1 µM: 79.4%
SK-BR-3, 4 h, read-out: BRD2 level, Western blot quantification (DMSO = 100), Fig S6g, SKBR3 Time course, 5 uM, 4hr
  remaining activity at 5 µM: 79.5%
SK-BR-3, 8 h, read-out: BRD2 level relative to DMSO (100%), SKBR3, 1µM, 8hr, Fig S6g
  remaining activity at 1 µM: 81 ± 7.6%
SK-BR-3, 8 h, read-out: BRD2 level relative to DMSO (100%), SKBR3, 5µM, 8hr, Fig S6g
  remaining activity at 5 µM: 90 ± 9.8%
SK-BR-3, 8 h, read-out: BRD2 level, Western blot quantification (DMSO = 100), Fig S6g, SKBR3 Time course, 1 uM, 8hr
  remaining activity at 1 µM: 76.3%
SK-BR-3, 8 h, read-out: BRD2 level, Western blot quantification (DMSO = 100), Fig S6g, SKBR3 Time course, 5 uM, 8hr
  remaining activity at 5 µM: 97.9%
SK-BR-3, read-out: BRD2 level, Western blot quantification (DMSO = 100), Fig S6i, SKBR3, 5uM
  remaining activity at 5 µM: 90.6%
U2OS KO/Rescue, 24 h dose
  BRD2 Dmax: ~ 100%
U2OS, 2 h, read-out: BRD2 level relative to DMSO (100%), U2OS, 5µM, 2hr, Fig S6h
  remaining activity at 5 µM: 102 ± 6.9%
U2OS, 2 h, read-out: BRD2 level, Western blot quantification (DMSO = 100), Fig S6h, U2OS Time course, 5uM, 2hr
  remaining activity at 5 µM: 108%
U2OS, 4 h, read-out: BRD2 level relative to DMSO (100%), U2OS, 5µM, 4hr, Fig S6h
  remaining activity at 5 µM: 104 ± 6.4%
U2OS, 4 h, read-out: BRD2 level, Western blot quantification (DMSO = 100), Fig S6h, U2OS Time course, 5uM, 4hr
  remaining activity at 5 µM: 109%
U2OS, 8 h, read-out: BRD2 level relative to DMSO (100%), U2OS, 5µM, 8hr, Fig S6i
  remaining activity at 5 µM: 120 ± 3.4%
U2OS, 8 h, read-out: BRD2 level relative to DMSO (100%), U2OS, 5µM, 8hr, Fig S6h
  remaining activity at 5 µM: 106 ± 8.4%
U2OS, 8 h, read-out: BRD2 level, Western blot quantification (DMSO = 100), Fig S6h, U2OS Time course, 5uM, 8hr
  remaining activity at 5 µM: 112%
U2OS, 24 h, read-out: BRD2 level relative to DMSO (100%), U2OS DC2KO (KLHDC2 knockout), 5µM, 24 h, Fig 6b
  remaining activity at 5 µM: 77 ± 2%
U2OS, 24 h, read-out: BRD2 level relative to DMSO (100%), U2OS KO/Rescue, 0.16µM, 24 h, Fig S6d
  remaining activity at 0.16 µM: 94 ± 6.9%
U2OS, 24 h, read-out: BRD2 level relative to DMSO (100%), U2OS KO/Rescue, 0.31µM, 24 h, Fig S6d
  remaining activity at 0.31 µM: 77 ± 6.6%
U2OS, 24 h, read-out: BRD2 level relative to DMSO (100%), U2OS KO/Rescue, 0.63µM, 24 h, Fig S6d
  remaining activity at 0.63 µM: 63 ± 3.8%
U2OS, 24 h, read-out: BRD2 level relative to DMSO (100%), U2OS KO/Rescue, 1µM + co-dosing 1µM MLN4924, 24 h, Fig 6d
  remaining activity at 1 µM: 350 ± 120%
U2OS, 24 h, read-out: BRD2 level relative to DMSO (100%), U2OS KO/Rescue, 1µM, 24 h, Fig 6c
  remaining activity at 1 µM: 88 ± 8.4%
U2OS, 24 h, read-out: BRD2 level relative to DMSO (100%), U2OS KO/Rescue, 1µM, 24 h, Fig 6d
  remaining activity at 1 µM: 68 ± 17%
U2OS, 24 h, read-out: BRD2 level relative to DMSO (100%), U2OS KO/Rescue, 1.3µM, 24 h, Fig S6d
  remaining activity at 1.3 µM: 54 ± 6.7%
U2OS, 24 h, read-out: BRD2 level relative to DMSO (100%), U2OS KO/Rescue, 2.5µM, 24 h, Fig S6d
  remaining activity at 2.5 µM: 37 ± 9.7%
U2OS, 24 h, read-out: BRD2 level relative to DMSO (100%), U2OS KO/Rescue, 5µM, 24 h, Fig S6d
  remaining activity at 5 µM: 12 ± 2.2%
U2OS, 24 h, read-out: BRD2 level relative to DMSO (100%), U2OS, 5µM, 24 h, Fig 6b
  remaining activity at 5 µM: 87 ± 5%
U2OS, 24 h, read-out: BRD2 level relative to DMSO (100%), U2OS, 5µM, 24hr, Fig S6h
  remaining activity at 5 µM: 77 ± 4.3%
U2OS, 24 h, read-out: BRD2 level, Western blot quantification (DMSO = 100), Fig S6h, U2OS Time course, 5uM, 24hr
  remaining activity at 5 µM: 79.8%
U2OS, read-out: BRD2 (DMSO = 100), U2OS KO/Rescue cells, Log SJ46420 (uM) 1.59176, Rep1, Rep2
  remaining activity at 1.59176 µM: 102%
U2OS, read-out: BRD2 (DMSO = 100), U2OS KO/Rescue cells, Log SJ46420 (uM) 1.89279, Rep1, Rep2
  remaining activity at 1.89279 µM: 99%
U2OS, read-out: BRD2 (DMSO = 100), U2OS KO/Rescue cells, Log SJ46420 (uM) 2.19382, Rep1, Rep2
  remaining activity at 2.19382 µM: 82.2%
U2OS, read-out: BRD2 (DMSO = 100), U2OS KO/Rescue cells, Log SJ46420 (uM) 2.49485, Rep1, Rep2
  remaining activity at 2.49485 µM: 66.6%
U2OS, read-out: BRD2 (DMSO = 100), U2OS KO/Rescue cells, Log SJ46420 (uM) 2.79588, Rep1, Rep2
  remaining activity at 2.79588 µM: 49.5%
U2OS, read-out: BRD2 (DMSO = 100), U2OS KO/Rescue cells, Log SJ46420 (uM) 3.09691, Rep1, Rep2
  remaining activity at 3.09691 µM: 30.5%
U2OS, read-out: BRD2 (DMSO = 100), U2OS KO/Rescue cells, Log SJ46420 (uM) 3.39794, Rep1, Rep2
  remaining activity at 3.39794 µM: 13.8%
U2OS, read-out: BRD2 (DMSO = 100), U2OS KO/Rescue cells, Log SJ46420 (uM) 3.69897, Rep1, Rep2
  remaining activity at 3.69897 µM: 1.16%
U2OS, read-out: BRD2 Dmax, U2OS KO/Rescue, 24 h dose
  Dmax: 99.3%
U2OS, read-out: BRD2 level, Western blot quantification (DMSO = 100), Fig 6b, U2OS, 5 uM
  remaining activity at 5 µM: 90.7%
U2OS, read-out: BRD2 level, Western blot quantification (DMSO = 100), Fig S6i, U2OS, 5uM
  remaining activity at 5 µM: 118%
[1]
  remaining activity at 0.156 µM: 83.3%
  remaining activity at 0.313 µM: 100%
  remaining activity at 0.625 µM: 81.2%
  remaining activity at 1.25 µM: 85.7%
U2OS, read-out: BRD2 level, Western blot quantification (DMSO = 100), Fig S6d, U2OS KO/rescue Dose Response, 2.5 uM
  remaining activity at 2.5 µM: 86.6%
U2OS, read-out: BRD2 level, Western blot quantification (DMSO = 100), Fig S6d, U2OS KO/rescue Dose Response, 5 uM
  remaining activity at 5 µM: 86.5%
read-out: BRD2 Dmax, PC3, 24 h dose
  Dmax: 19.5%
read-out: BRD2 level, Western blot quantification (DMSO = 100), Fig 6b, KO/Rescue, 5 uM
  remaining activity at 5 µM: 78.2%
[2]
  remaining activity at 0.156 µM: 99%
  remaining activity at 0.313 µM: 82.2%
  remaining activity at 0.625 µM: 66.6%
  remaining activity at 1.25 µM: 49.5%
read-out: BRD2 level, Western blot quantification (DMSO = 100), Fig S6e, PC3 KO/rescue Dose Response, 2.5 uM
  remaining activity at 2.5 µM: 30.5%
read-out: BRD2 level, Western blot quantification (DMSO = 100), Fig S6e, PC3 KO/rescue Dose Response, 5 uM
  remaining activity at 5 µM: 13.8%
read-out: BRD2 level, Western blot quantification (DMSO = 100), Fig S6e, PC3 KO/rescue Dose Response, 10uM
  remaining activity at 10 µM: 1.16%
